Reference: patent US7157430B2, “(Substituted)acyl dipeptidyl inhibitors of the ICE/CED-3 family of cysteine proteases” (Idun Pharmaceuticals, Inc., priority 1998, dated 2007)

biological target: T1, mICE (Mus musculus, UniProt P29452); assay: Dissociation constant Ki and irreversible rate constant k3 for irreversible inhibitors, ICE; assay type: biochemical; conditions: continuous assay 60 min, reaction initiated by adding enzyme
T1 sequence (P29452 123-296 limits assumed): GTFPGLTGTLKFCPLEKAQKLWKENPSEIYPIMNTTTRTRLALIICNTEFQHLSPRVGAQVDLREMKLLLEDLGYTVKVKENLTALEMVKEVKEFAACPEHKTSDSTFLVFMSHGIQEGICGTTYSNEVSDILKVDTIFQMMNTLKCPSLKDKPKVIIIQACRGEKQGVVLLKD
T1 sequence (P29452 315-402 limits assumed): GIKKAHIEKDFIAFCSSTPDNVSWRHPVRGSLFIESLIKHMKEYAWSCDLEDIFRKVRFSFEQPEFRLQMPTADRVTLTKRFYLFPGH
Description: (§1) For the irreversible inhibition of a ICE/ced-3 Family Protease enzyme with a competitive irreversible inhibitor; using the model represented by the following formulas: […]
(§2) The product formation at time t may be expressed as:
(§3) [formula] where E, I, EI and E-I denote the active enzyme, inhibitor, non-covalent enzyme-inhibitor complex and covalent enzyme-inhibitor adduct, respectively. The Ki value is the overall dissociation constant of the reversible binding steps, and k3 is the irreversible rate constant. The [S] and Ks values are the substate concentration and dissociation constant of the substrate bound to the enzyme, respectively. [E]^T is the total enzyme concentration.
(§4) The above equations were used to determine the Ki and k3 values of a given inhibitor bound to a ICE/ced-3 family protease. Thus, a continuous assay was run for sixty minutes at various concentrations of the inhibitor and the substrate. The assay was formulated essentially the same as described above for generating the data in Table 1, except that the reaction was initiated by adding the enzyme to the substrate-inhibitor mixture. The Ki and k3 values were obtained by simulating the product AMC formation as a function of time according to Equation 1.
(§5) The reference compound for this assay was Cbz-ValAlaAsp-CH2F and the values are denoted in Table 2 as “Reference”. The Ki values in Table 2 are in micromolar (μM). The k3/Ki values are in moles^−1 seconds^−1 (M^−1s^−1).

Structure (SMILES) | Ki [µM] | mICE k3/Ki
CC(C)[C@H](NC(=O)COc1cccc2ccccc12)C(=O)N[C@@H](CC(=O)O)C(=O)COP(C)(=O)c1ccccc1 (stereo partly drawn) [Example 104] | 0.133 | 50,600 M^−1s^−1
CC(C)[C@H](NC(=O)COc1cccc2ccccc12)C(=O)N[C@@H](CC(=O)O)C(=O)COP(C)(C)=O [Example 105] | 0.413 | 18,000 M^−1s^−1
CCCCCCP(=O)(OCC(=O)[C@H](CC(=O)O)NC(=O)[C@@H](NC(=O)COc1cccc2ccccc12)C(C)C)c1ccccc1 (stereo partly drawn) [Example 106] | 0.167 | 42,500 M^−1s^−1
CC(C)[C@H](NC(=O)COc1cccc2ccccc12)C(=O)N[C@@H](CC(=O)O)C(=O)COP(=O)(Cc1ccccc1)c1ccccc1 (stereo partly drawn) [Example 107] | 0.066 | 106,000 M^−1s^−1
CC(C)[C@H](NC(=O)COc1cccc2ccccc12)C(=O)N[C@@H](CC(=O)O)C(=O)COP(C)(=O)c1ccc(F)cc1 (stereo partly drawn) [Example 108] | 0.147 | 37,900 M^−1s^−1
CCCCCCP(=O)(OCC(=O)[C@H](CC(=O)O)NC(=O)[C@@H](NC(=O)COc1cccc2ccccc12)C(C)C)c1ccc(F)cc1 (stereo partly drawn) [Example 109] | 0.453 | 15,500 M^−1s^−1
CC(C)[C@H](NC(=O)COc1cccc2ccccc12)C(=O)N[C@@H](CC(=O)O)C(=O)COP(C)(=O)c1cccc2ccccc12 (stereo partly drawn) [Example 110] | 0.059 | 64,900 M^−1s^−1
Cc1cc(OCC(=O)[C@H](CC(=O)O)NC(=O)[C@@H](NC(=O)COc2cccc3ccccc23)C(C)C)cc(=O)o1 [Example 111] | 0.308 | 6,500 M^−1s^−1
CC(C)[C@H](NC(=O)COc1cccc2ccccc12)C(=O)N[C@@H](CC(=O)O)C(=O)COc1c(-c2ccccc2)oc2ccccc2c1=O [Example 115] | 0.324 | 8,740 M^−1s^−1

biological target: T2, CPP32 (Homo sapiens, UniProt P42574); assay: Dissociation constant Ki and irreversible rate constant k3 for irreversible inhibitors, CPP32; assay type: biochemical; conditions: continuous assay 60 min, reaction initiated by adding enzyme
T2 sequence (P42574 29-175 limits assumed): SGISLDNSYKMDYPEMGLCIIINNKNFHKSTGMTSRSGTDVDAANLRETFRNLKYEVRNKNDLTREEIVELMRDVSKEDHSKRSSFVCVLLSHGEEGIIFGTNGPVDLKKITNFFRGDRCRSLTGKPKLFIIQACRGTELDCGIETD
T2 sequence (P42574 176-277 limits assumed): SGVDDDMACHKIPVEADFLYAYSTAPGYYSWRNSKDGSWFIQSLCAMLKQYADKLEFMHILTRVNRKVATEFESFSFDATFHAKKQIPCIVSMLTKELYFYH
Description: as §1, §2, §3, §4, §5

Structure (SMILES) | CPP32 k3/Ki | Ki [µM]
CC(C)[C@H](NC(=O)COc1cccc2ccccc12)C(=O)N[C@@H](CC(=O)O)C(=O)COP(C)(=O)c1ccccc1 (stereo partly drawn) [Example 104] | 151,000 M^−1s^−1 | 0.054
CC(C)[C@H](NC(=O)COc1cccc2ccccc12)C(=O)N[C@@H](CC(=O)O)C(=O)COP(C)(C)=O [Example 105] | 44,900 M^−1s^−1 | 0.341
CCCCCCP(=O)(OCC(=O)[C@H](CC(=O)O)NC(=O)[C@@H](NC(=O)COc1cccc2ccccc12)C(C)C)c1ccccc1 (stereo partly drawn) [Example 106] | 155,000 M^−1s^−1 | 0.048
CC(C)[C@H](NC(=O)COc1cccc2ccccc12)C(=O)N[C@@H](CC(=O)O)C(=O)COP(=O)(Cc1ccccc1)c1ccccc1 (stereo partly drawn) [Example 107] | 424,000 M^−1s^−1 | 0.014
CC(C)[C@H](NC(=O)COc1cccc2ccccc12)C(=O)N[C@@H](CC(=O)O)C(=O)COP(C)(=O)c1ccc(F)cc1 (stereo partly drawn) [Example 108] | 140,000 M^−1s^−1 | 0.041
CCCCCCP(=O)(OCC(=O)[C@H](CC(=O)O)NC(=O)[C@@H](NC(=O)COc1cccc2ccccc12)C(C)C)c1ccc(F)cc1 (stereo partly drawn) [Example 109] | 48,300 M^−1s^−1 | 0.136
CC(C)[C@H](NC(=O)COc1cccc2ccccc12)C(=O)N[C@@H](CC(=O)O)C(=O)COP(C)(=O)c1cccc2ccccc12 (stereo partly drawn) [Example 110] | 272,000 M^−1s^−1 | 0.035
Cc1cc(OCC(=O)[C@H](CC(=O)O)NC(=O)[C@@H](NC(=O)COc2cccc3ccccc23)C(C)C)cc(=O)o1 [Example 111] | 21,900 M^−1s^−1 | 0.22
CC(C)[C@H](NC(=O)COc1cccc2ccccc12)C(=O)N[C@@H](CC(=O)O)C(=O)COc1c(-c2ccccc2)oc2ccccc2c1=O [Example 115] | 127,000 M^−1s^−1 | 0.046

biological target: T3, MCH-2 (Homo sapiens, UniProt P55212); assay: Dissociation constant Ki and irreversible rate constant k3 for irreversible inhibitors, Mch2; assay type: biochemical; conditions: continuous assay 60 min, reaction initiated by adding enzyme
T3 sequence (P55212 24-179 limits assumed): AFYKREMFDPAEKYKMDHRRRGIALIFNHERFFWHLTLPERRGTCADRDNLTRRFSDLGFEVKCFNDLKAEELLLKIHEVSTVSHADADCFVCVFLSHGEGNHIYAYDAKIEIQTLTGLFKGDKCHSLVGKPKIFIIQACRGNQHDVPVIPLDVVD
T3 sequence (P55212 194-293 limits assumed): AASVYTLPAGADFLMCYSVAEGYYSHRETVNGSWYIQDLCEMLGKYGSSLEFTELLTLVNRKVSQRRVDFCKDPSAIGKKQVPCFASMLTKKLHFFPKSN
Description: as §1, §2, §3, §4, §5

Structure (SMILES) | Ki [µM] | MCH-2 k3/Ki
CC(C)[C@H](NC(=O)COc1cccc2ccccc12)C(=O)N[C@@H](CC(=O)O)C(=O)COP(C)(=O)c1ccccc1 (stereo partly drawn) [Example 104] | 0.037 | 50,200 M^−1s^−1
CC(C)[C@H](NC(=O)COc1cccc2ccccc12)C(=O)N[C@@H](CC(=O)O)C(=O)COP(C)(C)=O [Example 105] | 0.233 | 6,090 M^−1s^−1
CCCCCCP(=O)(OCC(=O)[C@H](CC(=O)O)NC(=O)[C@@H](NC(=O)COc1cccc2ccccc12)C(C)C)c1ccccc1 (stereo partly drawn) [Example 106] | 0.08 | 52,900 M^−1s^−1
CC(C)[C@H](NC(=O)COc1cccc2ccccc12)C(=O)N[C@@H](CC(=O)O)C(=O)COP(=O)(Cc1ccccc1)c1ccccc1 (stereo partly drawn) [Example 107] | 0.021 | 187,000 M^−1s^−1
CC(C)[C@H](NC(=O)COc1cccc2ccccc12)C(=O)N[C@@H](CC(=O)O)C(=O)COP(C)(=O)c1ccc(F)cc1 (stereo partly drawn) [Example 108] | 0.037 | 60,400 M^−1s^−1
CCCCCCP(=O)(OCC(=O)[C@H](CC(=O)O)NC(=O)[C@@H](NC(=O)COc1cccc2ccccc12)C(C)C)c1ccc(F)cc1 (stereo partly drawn) [Example 109] | 0.119 | 16,800 M^−1s^−1
CC(C)[C@H](NC(=O)COc1cccc2ccccc12)C(=O)N[C@@H](CC(=O)O)C(=O)COP(C)(=O)c1cccc2ccccc12 (stereo partly drawn) [Example 110] | 0.015 | 150,000 M^−1s^−1
Cc1cc(OCC(=O)[C@H](CC(=O)O)NC(=O)[C@@H](NC(=O)COc2cccc3ccccc23)C(C)C)cc(=O)o1 [Example 111] | 2.16 | 230 M⁻¹ s⁻¹
CC(C)[C@H](NC(=O)COc1cccc2ccccc12)C(=O)N[C@@H](CC(=O)O)C(=O)COc1c(-c2ccccc2)oc2ccccc2c1=O [Example 115] | 0.054 | 0 M⁻¹ s⁻¹

biological target: MCH-5 (Homo sapiens, UniProt Q14790); assay: Dissociation constant Ki and irreversible rate constant k3 for irreversible inhibitors, Mch5; assay type: biochemical; conditions: continuous assay 60 min, reaction initiated by adding enzyme
Description: as §1, §2, §3, §4, §5

MCH-5, sequence (Q14790 217-374 limits assumed, species assumed): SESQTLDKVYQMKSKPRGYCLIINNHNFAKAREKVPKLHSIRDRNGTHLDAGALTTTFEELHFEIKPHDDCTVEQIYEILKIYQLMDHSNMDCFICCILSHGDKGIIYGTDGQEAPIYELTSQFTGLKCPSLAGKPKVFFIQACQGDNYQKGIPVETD
MCH-5, sequence (Q14790 385-479 limits assumed, species assumed): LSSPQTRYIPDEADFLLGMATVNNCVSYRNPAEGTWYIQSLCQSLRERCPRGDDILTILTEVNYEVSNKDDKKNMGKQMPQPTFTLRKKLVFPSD

Structure (SMILES) | Ki [µM] | MCH-5 k3/Ki
CC(C)[C@H](NC(=O)COc1cccc2ccccc12)C(=O)N[C@@H](CC(=O)O)C(=O)COP(C)(=O)c1ccccc1 (stereo partly drawn) [Example 104] | 0.059 | 15,500 M^−1s^−1
CC(C)[C@H](NC(=O)COc1cccc2ccccc12)C(=O)N[C@@H](CC(=O)O)C(=O)COP(C)(C)=O [Example 105] | 0.16 | 3,700 M^−1s^−1
CCCCCCP(=O)(OCC(=O)[C@H](CC(=O)O)NC(=O)[C@@H](NC(=O)COc1cccc2ccccc12)C(C)C)c1ccccc1 (stereo partly drawn) [Example 106] | 0.134 | 10,500 M^−1s^−1
CC(C)[C@H](NC(=O)COc1cccc2ccccc12)C(=O)N[C@@H](CC(=O)O)C(=O)COP(=O)(Cc1ccccc1)c1ccccc1 (stereo partly drawn) [Example 107] | 0.048 | 27,800 M^−1s^−1
CC(C)[C@H](NC(=O)COc1cccc2ccccc12)C(=O)N[C@@H](CC(=O)O)C(=O)COP(C)(=O)c1ccc(F)cc1 (stereo partly drawn) [Example 108] | 0.105 | 9,890 M^−1s^−1
CCCCCCP(=O)(OCC(=O)[C@H](CC(=O)O)NC(=O)[C@@H](NC(=O)COc1cccc2ccccc12)C(C)C)c1ccc(F)cc1 (stereo partly drawn) [Example 109] | 0.219 | 4,070 M^−1s^−1
CC(C)[C@H](NC(=O)COc1cccc2ccccc12)C(=O)N[C@@H](CC(=O)O)C(=O)COP(C)(=O)c1cccc2ccccc12 (stereo partly drawn) [Example 110] | 0.043 | 18,800 M^−1s^−1
Cc1cc(OCC(=O)[C@H](CC(=O)O)NC(=O)[C@@H](NC(=O)COc2cccc3ccccc23)C(C)C)cc(=O)o1 [Example 111] | 2.87 | 170 M⁻¹ s⁻¹
CC(C)[C@H](NC(=O)COc1cccc2ccccc12)C(=O)N[C@@H](CC(=O)O)C(=O)COc1c(-c2ccccc2)oc2ccccc2c1=O [Example 115] | 4.67 | 0 M⁻¹ s⁻¹
